Experimental findings from PMC5241874 are described below.

The target in this experiment is T1, αγ heterodimer of human NAD-IDH (IDH3) (Homo sapiens, UniProt P50213+P51553).
T1 construct: gene IDH3A; alpha and gamma co-expressed in E. coli BL21(DE3) from pQlinkN; gamma C-terminal TEV-His6, His6 cleaved by TEV; 80 kDa heterodimer (dimer of heterodimers at high concentration)
T1 sequence (P50213 28-366): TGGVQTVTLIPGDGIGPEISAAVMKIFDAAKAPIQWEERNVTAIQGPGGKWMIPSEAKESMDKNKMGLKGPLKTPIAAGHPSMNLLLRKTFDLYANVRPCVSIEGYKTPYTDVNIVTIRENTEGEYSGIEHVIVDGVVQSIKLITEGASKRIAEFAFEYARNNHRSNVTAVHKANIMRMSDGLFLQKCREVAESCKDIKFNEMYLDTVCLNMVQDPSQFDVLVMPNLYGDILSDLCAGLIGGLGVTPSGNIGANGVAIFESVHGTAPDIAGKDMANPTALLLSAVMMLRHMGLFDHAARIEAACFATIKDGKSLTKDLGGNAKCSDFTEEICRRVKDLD
T1 sequence (P51553 40-393): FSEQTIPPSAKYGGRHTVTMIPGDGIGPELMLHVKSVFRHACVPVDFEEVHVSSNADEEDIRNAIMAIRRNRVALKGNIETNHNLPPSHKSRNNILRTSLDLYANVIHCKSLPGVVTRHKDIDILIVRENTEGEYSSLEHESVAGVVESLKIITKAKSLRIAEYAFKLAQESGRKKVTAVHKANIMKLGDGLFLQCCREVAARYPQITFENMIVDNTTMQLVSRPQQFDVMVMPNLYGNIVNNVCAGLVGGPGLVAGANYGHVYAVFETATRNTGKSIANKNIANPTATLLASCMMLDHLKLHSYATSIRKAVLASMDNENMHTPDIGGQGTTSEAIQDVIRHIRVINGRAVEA
The experiment can be described thus: crystal structure, […] Å. The class given is binding. As to conditions: allosteric citrate subsite in gamma subunit (second site), with Mg2+ and ADP; pH 7.5.

For the compound `O=C(O)C[C@H](C(=O)O)[C@@H](O)C(=O)O` [ICT], the “crystal structure, 2.8 Å” value is reported as “In this structure, ICT binds to the CIT-binding subsite with a similar orientation as CIT”.
